Consider seven molecules from patent publication US20100016547A1, “Glycosilated Peptide and Medicine Comprising It as an Effective Ingredient” (priority 2005, published 2010).

The target in experiment [1] is T1, GLP-1 receptor (Homo sapiens, UniProt P43220).
Description: After being incubated at room temperature for 2 hours, the solution was filtered through a unifilter 96GF/C plate (Perkin-Elmer) pretreated with 1% polyethylenimine containing 0.5% BSA, washed with 25 mM HEPES buffer solution (pH 7.4) containing 0.5% BSA, and radioactivity remained on the filter was measured by a gamma counter (Top Counter; Perkin-Elmer).
The target in experiment [2] is T1, GLP-1 receptor. In words: Assay for production of cAMP.
Description: Assay for Production of cAMP
After stirring at room temperature for an hour, the cells were lysed with Triton X-100 (final concentration: 1%).
Quantity of cAMP was determined using cAMP Femtomolar Kit (CIS Bio International). The reaction solution (1 μL) was moved to a new 384-well plate and diluted by adding 9 μL of dilution buffer. Next, each 5 μL of cAMP-XL665 solution and anti-cAMP cryptate solution of the Kit was added, the mixture was incubated at room temperature for an hour, and time-resolved fluorescence was measured using RUBYstar (BMG LABTECH).

Peptide text beside a SMILES is read from it. * marks the point of attachment. NH(β-GlcNAc) = CC(=O)N[C@@H]1[C@@H](O)[C@H](O)[C@@H](CO)O[C@H]1N*

T1 sequence (P43220 24-463, species assumed): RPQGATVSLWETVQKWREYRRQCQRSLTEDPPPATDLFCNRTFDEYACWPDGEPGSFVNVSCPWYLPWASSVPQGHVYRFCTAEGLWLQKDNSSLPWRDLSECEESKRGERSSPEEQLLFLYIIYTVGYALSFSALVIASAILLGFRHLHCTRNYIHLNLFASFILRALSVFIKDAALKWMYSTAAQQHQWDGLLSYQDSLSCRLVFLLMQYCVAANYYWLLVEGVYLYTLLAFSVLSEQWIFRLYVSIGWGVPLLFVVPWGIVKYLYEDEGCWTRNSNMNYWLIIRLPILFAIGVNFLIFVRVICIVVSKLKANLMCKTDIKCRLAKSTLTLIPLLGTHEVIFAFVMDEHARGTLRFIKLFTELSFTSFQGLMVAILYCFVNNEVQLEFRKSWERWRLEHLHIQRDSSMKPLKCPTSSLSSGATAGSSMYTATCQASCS

On to `CC[C@H](C)[C@H](NC(=O)[C@H](Cc1ccccc1)NC(=O)[C@H](CCC(=O)O)NC(=O)[C@H](CCCCN)NC(=O)[C@H](C)NC(=O)[C@H](C)NC(=O)[C@H](CCC(N)=O)NC(=O)CNC(=O)[C@H](CCC(=O)O)NC(=O)[C@H](CC(C)C)NC(=O)[C@H](Cc1ccc(O)cc1)NC(=O)[C@H](CO)NC(=O)[C@H](CO)NC(=O)[C@@H](NC(=O)[C@H](CC(=O)O)NC(=O)[C@H](CO)NC(=O)[C@@H](NC(=O)[C@H](Cc1ccccc1)NC(=O)[C@@H](NC(=O)CNC(=O)[C@H](CCC(=O)O)NC(=O)[C@H](C)NC(=O)[C@@H](N)Cc1c[nH]cn1)[C@@H](C)O)[C@@H](C)O)C(C)C)C(=O)N[C@@H](C)C(=O)N[C@@H](Cc1c[nH]c2ccccc12)C(=O)N[C@@H](CC(C)C)C(=O)N[C@H](C(=O)N[C@@H](CC(N)=O)C(=O)NCC(=O)N[C@@H](CCCNC(=N)N)C(N)=O)C(C)C` [GL34N], for which the IC50 against GLP-1 receptor [1] was 1 nM. Also, the midpoint of the response on GLP-1 receptor [2], the EC50, lay at 0.11 nM.

At GLP-1 receptor [1], `CC[C@H](C)[C@H](NC(=O)[C@H](Cc1ccccc1)NC(=O)[C@H](CCC(=O)O)NC(=O)[C@H](CCCCN)NC(=O)[C@H](C)NC(=O)[C@H](C)NC(=O)[C@H](CCC(N)=O)NC(=O)CNC(=O)[C@H](CCC(=O)O)NC(=O)[C@H](CC(C)C)NC(=O)[C@H](CC(=O)N[C@@H]1O[C@H](CO)[C@@H](O)[C@H](O)[C@H]1NC(C)=O)NC(=O)[C@H](CO)NC(=O)[C@H](CO)NC(=O)[C@@H](NC(=O)[C@H](CC(=O)O)NC(=O)[C@H](CO)NC(=O)[C@@H](NC(=O)[C@H](Cc1ccccc1)NC(=O)[C@@H](NC(=O)CNC(=O)[C@H](CCC(=O)O)NC(=O)[C@H](C)NC(=O)[C@@H](N)Cc1c[nH]cn1)[C@@H](C)O)[C@@H](C)O)C(C)C)C(=O)N[C@@H](C)C(=O)N[C@@H](Cc1c[nH]c2ccccc12)C(=O)N[C@@H](CC(C)C)C(=O)N[C@H](C(=O)N[C@@H](CCCCN)C(=O)NCC(=O)N[C@@H](CCCNC(=N)N)C(N)=O)C(C)C` [GL19NG] (H-HAEGTFTSDVSSD(NH(β-GlcNAc))LEGQAAKEFIAWLVKGR-NH2) displayed an IC50 of 41 nM. Further, at GLP-1 receptor [2], the concentration for a half-maximal effect (EC50) worked out at 8.1 nM.

At GLP-1 receptor [1], `CC[C@H](C)[C@H](NC(=O)[C@H](Cc1ccccc1)NC(=O)[C@H](CCC(=O)O)NC(=O)[C@H](CCCCN)NC(=O)[C@H](C)NC(=O)[C@H](C)NC(=O)[C@H](CCC(N)=O)NC(=O)CNC(=O)[C@H](CCC(=O)O)NC(=O)[C@H](CC(C)C)NC(=O)[C@H](Cc1ccc(O)cc1)NC(=O)[C@H](CO)NC(=O)[C@H](CO)NC(=O)[C@@H](NC(=O)[C@H](CC(=O)O)NC(=O)[C@H](CO)NC(=O)[C@@H](NC(=O)[C@H](Cc1ccccc1)NC(=O)[C@@H](NC(=O)CNC(=O)[C@H](CCC(=O)O)NC(=O)[C@H](C)NC(=O)[C@@H](N)Cc1c[nH]cn1)[C@@H](C)O)[C@@H](C)O)C(C)C)C(=O)N[C@@H](C)C(=O)N[C@@H](Cc1c[nH]c2ccccc12)C(=O)N[C@@H](CC(C)C)C(=O)N[C@H](C(=O)N[C@@H](CSCC(=O)N[C@@H](CCC(=O)N[C@@H](CC(=O)N[C@@H]1O[C@H](CO)[C@@H](O[C@@H]2O[C@H](CO)[C@@H](O[C@@H]3O[C@H](CO[C@H]4O[C@H](CO)[C@@H](O)[C@H](O)[C@@H]4O[C@@H]4O[C@H](CO)[C@@H](O[C@@H]5O[C@H](CO[C@]6(C(=O)O)C[C@H](O)[C@@H](NC(C)=O)[C@H]([C@H](O)[C@H](O)CO)O6)[C@H](O)[C@H](O)[C@H]5O)[C@H](O)[C@H]4NC(C)=O)[C@@H](O)[C@H](O[C@H]4O[C@H](CO)[C@@H](O)[C@H](O)[C@@H]4O[C@@H]4O[C@H](CO)[C@@H](O[C@@H]5O[C@H](CO[C@]6(C(=O)O)C[C@H](O)[C@@H](NC(C)=O)[C@H]([C@H](O)[C@H](O)CO)O6)[C@H](O)[C@H](O)[C@H]5O)[C@H](O)[C@H]4NC(C)=O)[C@@H]3O)[C@H](O)[C@H]2NC(C)=O)[C@H](O)[C@H]1NC(C)=O)C(=O)O)C(=O)N[C@@H](CC(=O)N[C@@H]1O[C@H](CO)[C@@H](O[C@@H]2O[C@H](CO)[C@@H](O[C@@H]3O[C@H](CO[C@H]4O[C@H](CO)[C@@H](O)[C@H](O)[C@@H]4O[C@@H]4O[C@H](CO)[C@@H](O[C@@H]5O[C@H](CO[C@]6(C(=O)O)C[C@H](O)[C@@H](NC(C)=O)[C@H]([C@H](O)[C@H](O)CO)O6)[C@H](O)[C@H](O)[C@H]5O)[C@H](O)[C@H]4NC(C)=O)[C@@H](O)[C@H](O[C@H]4O[C@H](CO)[C@@H](O)[C@H](O)[C@@H]4O[C@@H]4O[C@H](CO)[C@@H](O[C@@H]5O[C@H](CO[C@]6(C(=O)O)C[C@H](O)[C@@H](NC(C)=O)[C@H]([C@H](O)[C@H](O)CO)O6)[C@H](O)[C@H](O)[C@H]5O)[C@H](O)[C@H]4NC(C)=O)[C@@H]3O)[C@H](O)[C@H]2NC(C)=O)[C@H](O)[C@H]1NC(C)=O)C(=O)O)C(=O)NCC(=O)N[C@@H](CCCNC(=N)N)C(N)=O)C(C)C` [GL34CE2] registered a half-maximal inhibitory concentration (IC50) of 20 nM. On GLP-1 receptor [2], this molecule came in with an EC50 of 3.4 nM.

With `CC[C@H](C)[C@H](NC(=O)[C@H](Cc1ccccc1)NC(=O)[C@H](CCC(=O)O)NC(=O)[C@H](CCCCN)NC(=O)[C@H](C)NC(=O)[C@H](C)NC(=O)[C@H](CCC(N)=O)NC(=O)CNC(=O)[C@H](CCC(=O)O)NC(=O)[C@H](CC(C)C)NC(=O)[C@H](Cc1ccc(O)cc1)NC(=O)[C@H](CO)NC(=O)[C@H](CO)NC(=O)[C@@H](NC(=O)[C@H](CC(=O)O)NC(=O)[C@H](CO)NC(=O)[C@@H](NC(=O)[C@H](Cc1ccccc1)NC(=O)[C@@H](NC(=O)CNC(=O)[C@H](CCC(=O)O)NC(=O)[C@H](CC(=O)N[C@@H]1O[C@H](CO)[C@@H](O[C@@H]2O[C@H](CO)[C@H](O)[C@H](O)[C@H]2O)[C@H](O)[C@H]1NC(C)=O)NC(=O)[C@@H](N)Cc1c[nH]cn1)[C@@H](C)O)[C@@H](C)O)C(C)C)C(=O)N[C@@H](C)C(=O)N[C@@H](Cc1c[nH]c2ccccc12)C(=O)N[C@@H](CC(C)C)C(=O)N[C@H](C(=O)N[C@@H](CCCCN)C(=O)NCC(=O)N[C@@H](CCCNC(=N)N)C(N)=O)C(C)C` [GL08NL], the IC50 against GLP-1 receptor [1] was above 100 nM. This molecule also gave an EC50 on GLP-1 receptor [2] of 284 nM.

At GLP-1 receptor [1], `CC[C@H](C)[C@H](NC(=O)[C@H](Cc1ccccc1)NC(=O)[C@H](CCC(=O)O)NC(=O)[C@H](CC(=O)N[C@@H]1O[C@H](CO)[C@@H](O[C@@H]2O[C@H](CO)[C@@H](O[C@@H]3O[C@H](CO[C@H]4O[C@H](CO)[C@@H](O)[C@H](O)[C@@H]4O[C@@H]4O[C@H](CO)[C@@H](O[C@@H]5O[C@H](CO[C@]6(C(=O)O)C[C@H](O)[C@@H](NC(C)=O)[C@H]([C@H](O)[C@H](O)CO)O6)[C@H](O)[C@H](O)[C@H]5O)[C@H](O)[C@H]4NC(C)=O)[C@@H](O)[C@H](O[C@H]4O[C@H](CO)[C@@H](O)[C@H](O)[C@@H]4O[C@@H]4O[C@H](CO)[C@@H](O[C@@H]5O[C@H](CO[C@]6(C(=O)O)C[C@H](O)[C@@H](NC(C)=O)[C@H]([C@H](O)[C@H](O)CO)O6)[C@H](O)[C@H](O)[C@H]5O)[C@H](O)[C@H]4NC(C)=O)[C@@H]3O)[C@H](O)[C@H]2NC(C)=O)[C@H](O)[C@H]1NC(C)=O)NC(=O)[C@H](C)NC(=O)[C@H](C)NC(=O)[C@H](CCC(N)=O)NC(=O)CNC(=O)[C@H](CCC(=O)O)NC(=O)[C@H](CC(C)C)NC(=O)[C@H](Cc1ccc(O)cc1)NC(=O)[C@H](CO)NC(=O)[C@H](CO)NC(=O)[C@@H](NC(=O)[C@H](CC(=O)O)NC(=O)[C@H](CO)NC(=O)[C@@H](NC(=O)[C@H](Cc1ccccc1)NC(=O)[C@@H](NC(=O)CNC(=O)[C@H](CCC(=O)O)NC(=O)[C@H](C)NC(=O)[C@@H](N)Cc1c[nH]cn1)[C@@H](C)O)[C@@H](C)O)C(C)C)C(=O)N[C@@H](C)C(=O)N[C@@H](Cc1c[nH]c2ccccc12)C(=O)N[C@@H](CC(C)C)C(=O)N[C@H](C(=O)N[C@@H](CCCCN)C(=O)NCC(=O)N[C@@H](CCCNC(=N)N)C(N)=O)C(C)C` [GL26NE1] yielded an IC50 of 11 nM. In addition, the EC50 on GLP-1 receptor [2] was determined as 0.8 nM.

Consider `CC[C@H](C)[C@H](NC(=O)[C@H](Cc1ccccc1)NC(=O)[C@H](CCC(=O)O)NC(=O)[C@H](CC(=O)N[C@@H]1O[C@H](CO)[C@@H](O[C@@H]2O[C@H](CO)[C@H](O)[C@H](O)[C@H]2O)[C@H](O)[C@H]1NC(C)=O)NC(=O)[C@H](C)NC(=O)[C@H](C)NC(=O)[C@H](CCC(N)=O)NC(=O)CNC(=O)[C@H](CCC(=O)O)NC(=O)[C@H](CC(C)C)NC(=O)[C@H](Cc1ccc(O)cc1)NC(=O)[C@H](CO)NC(=O)[C@H](CO)NC(=O)[C@@H](NC(=O)[C@H](CC(=O)O)NC(=O)[C@H](CO)NC(=O)[C@@H](NC(=O)[C@H](Cc1ccccc1)NC(=O)[C@@H](NC(=O)CNC(=O)[C@H](CCC(=O)O)NC(=O)[C@H](C)NC(=O)[C@@H](N)Cc1c[nH]cn1)[C@@H](C)O)[C@@H](C)O)C(C)C)C(=O)N[C@@H](C)C(=O)N[C@@H](Cc1c[nH]c2ccccc12)C(=O)N[C@@H](CC(C)C)C(=O)N[C@H](C(=O)N[C@@H](CCCCN)C(=O)NCC(=O)N[C@@H](CCCNC(=N)N)C(N)=O)C(C)C` [GL26NL], for which, at GLP-1 receptor [1], the IC50 stood at 2 nM. This molecule displayed an EC50 at GLP-1 receptor [2] of 0.33 nM.

Turning to “H-HAEGTFTSDVSSNLEGQAAKEFIAWLVKGR-NH2 [GL19N]”, half-maximal inhibition against GLP-1 receptor [1] (IC50) required 11 nM. In addition, the half-maximal effective concentration (EC50) on GLP-1 receptor [2] worked out at 0.92 nM.
